The numbers were not newly measured in patent US20130177646A1, “Solid Nicotine-Comprising Dosage Form with Reduced Organoleptic Disturbance” (priority 2012, published 2013), which cites them from elsewhere.

Structures are written as SMILES.

For the data set the following is noted: smoking a cigarette.

For the compound `CN1CCCC1c1cccnc1` (stereo not shown) [nicotine], the “time for nicotine to reach the brain after inhalation” value is on record as “around ten”.
